Experimental data reported in patent publication US20120302609A1, “Pyrazolines for the Modulation of PKM2” (Dynamix Pharmaceuticals LTD., priority 2011, published 2012).

Molecular target: T1, PKM2, human recombinant (Homo sapiens, UniProt P14618)
T1 construct: purchased BPS 50295
Assay: PKM2 enzymatic activity assay (Kinase-Glo Plus luminescence);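 on Max activity Group: percent increase over no-compound signal after subtracting the no-PKM2 background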
Assay type: biochemical
Settings: for AC50: 0.1 nM PKM2, 0.1 mM ADP, 0.5 mM PEP, 1 hour, room temperature, read-out: AC50 group; for Emax: 1 h, read-out: Max activity Group; for Max activity: 30 μM
Experimental: PKM2 performs the following enzymatic reaction, where the PKM2 substrates, PEP (phosphoenolpyruvate) and ADP, are converted to pyruvate and ATP as follows:
All of the enzymatic reactions were conducted in duplicates at room temperature for 1 hour in a 50 μL mixture containing: • PKM2 assay buffer (50 mM Imidazole, pH 7.2; 7 mM MgCl2; 50 mM KCl; 0.01% Tween; • and 0.05% BSA), 0.1 mM ADP, 0.5 mM PEP, 0.1 nM PKM2 enzyme (PKM2, human recombinant (BPS catalog number 50295)) and the indicated test compound. Fructose 1,6 biphosphat e, (FBP (Sigma)) was used as a positive control for activation at concentration of 0.5 mM. After enzymatic reactions, 50 μL of Kinase-Glo® Plus reagent (Promega kit) was added to each well and luminescence was measured using a BioTek Synergy™ 2 microplate reader.
PKM2 activity assays were performed in duplicates at each concentration. The luminescence data were analyzed using the computer software, GraphPad PRISM®. In the absence of the compound, the luminescence was defined as 0% activity. The percent activity in the presence of each compound was calculated according to the following equation:
% Activity=[(L−Lb)/(Lt−Lb)−1]×100%
where L=the luminescence in the presence of the test compound, Lb=the luminescence in the absence of PKM2, and Lt=the luminescence intensity in the absence of the test compound. The % activity values versus a series of compound concentrations were plotted using non-linear regression analysis of Sigmoidal dose-response curve generated with the equation Y=B+(T−B)/1+10^((LogEC50-X)×Hill Slope), where Y=percent activity, B=minimum percent activity, T=maximum percent activity, X=logarithm of compound and Hill Slope=slope factor or Hill coefficient. The AC50 values, shown in Table 2 were determined for the indicated test compounds as the concentration causing a half-maximal percent activity.

[1] = maximum percent activity, luminescence without compound = 0% activity

T1 sequence (P14618 whole entry): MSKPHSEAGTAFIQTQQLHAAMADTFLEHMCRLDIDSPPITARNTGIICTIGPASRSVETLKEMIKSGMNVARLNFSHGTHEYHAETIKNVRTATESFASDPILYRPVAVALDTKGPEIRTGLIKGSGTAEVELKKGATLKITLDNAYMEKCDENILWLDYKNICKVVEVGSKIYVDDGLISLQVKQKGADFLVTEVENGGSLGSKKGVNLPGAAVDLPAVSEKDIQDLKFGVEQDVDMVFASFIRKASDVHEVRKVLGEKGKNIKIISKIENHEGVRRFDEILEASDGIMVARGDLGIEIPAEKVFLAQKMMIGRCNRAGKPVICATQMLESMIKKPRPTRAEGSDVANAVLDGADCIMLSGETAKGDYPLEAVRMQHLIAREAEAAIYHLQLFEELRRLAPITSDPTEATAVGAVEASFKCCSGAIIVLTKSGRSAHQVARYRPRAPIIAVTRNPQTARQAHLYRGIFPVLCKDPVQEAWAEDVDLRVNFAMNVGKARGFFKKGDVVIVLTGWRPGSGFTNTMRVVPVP

AC50 | Emax [1] | Max activity Group [1] | Max activity | Compound
≤ 1 µM | ≥ 200% |  |  | COc1ccc(C2CC(c3ccc(NS(=O)(=O)c4ccc(OC)cc4)cc3)=NN2C(C)=O)cc1 (racemic) [Compound 19A, N-(4-(1-Acetyl-5-(4-methoxyphenyl)-4,5-dihydro-1H-pyrazol-3-yl)phenyl)-4-methoxy benzenesulfonamide]
≤ 1 µM | ≤ 130% |  |  | CC(=O)N1N=C(c2ccc(NS(=O)(=O)c3ccc(F)cc3)cc2)CC1c1ccc(F)cc1 (racemic) [Compound 25A, N-(4-(1-Acetyl-5-(4-fluorophenyl)-4,5-dihydro-1H-pyrazol-3-yl)phenyl)-4-fluoro benzenesulfonamide]
10 to 100 µM | ≤ 130% |  |  | COc1ccc(C2CC(c3ccc(NS(=O)(=O)c4ccc(F)cc4)cc3)=NN2C(C)=O)cc1 (single isomer, unassigned) [Compound 12A]
≤ 1 µM | ≤ 130% |  |  | CC(=O)N1N=C(c2ccc(NS(=O)(=O)c3ccc(F)cc3)cc2)CC1c1ccc(F)cc1 (single isomer, unassigned) [Compound 35A]
≤ 1 µM | 130 to 200% |  |  | CCS(=O)(=O)Nc1ccc(C2=NN(C(C)=O)C(c3ccc4c(c3)OCCO4)C2)cc1 (stereo not shown) [Compound 4A]
≤ 1 µM | ≥ 200% |  |  | COc1ccc(C2CC(c3ccc(NS(=O)(=O)c4c(F)cccc4F)cc3)=NN2C(C)=O)cc1 (stereo not shown) [Compound 5A]
1 to 10 µM | 130 to 200% |  |  | COc1ccc(C2CC(c3ccc(NS(=O)(=O)c4ccc5c(c4)OCCO5)cc3)=NN2C(C)=O)cc1 (stereo not shown) [Compound 7A, N-(4-(1-acetyl-5-(4-methoxyphenyl)-4,5-dihydro-1H-pyrazol-3-yl)phenyl)-2,3-dihydrobenzo[b][1,4]dioxine-6-sulfonamide]
1 to 10 µM | 130 to 200% |  |  | CC(=O)N1N=C(c2ccc(NS(=O)(=O)c3ccc(F)cc3)cc2)CC1c1ccc2c(c1)OCCO2 (stereo not shown) [Compound 8A, N-(4-(1-Acetyl-5-(2,3-dihydrobenzo[b][1,4]dioxin-6-yl)-4,5-dihydro-1H-pyrazol-3-yl)phenyl)-4-fluorobenzenesulfonamide]
10 to 100 µM | ≤ 130% |  |  | CC(=O)N1N=C(c2ccc3c(c2)CCN3S(C)(=O)=O)CC1c1ccc2c(c1)OCCO2 (stereo not shown) [Compound 9A, 1-(5-(2,3-dihydrobenzo[b][1,4]dioxin-6-yl)-3-(1-(methylsulfonyl)indolin-5-yl)-4,5-dihydro-1H-pyrazol-1-yl)ethanone]
≤ 1 µM | 130 to 200% |  |  | CCNS(=O)(=O)c1ccc(C2=NN(C(C)=O)C(c3ccc(OC)cc3)C2)cc1 (stereo not shown) [Compound 10A, 4-(1-acetyl-5-(4-methoxyphenyl)-4,5-dihydro-1H-pyrazol-3-yl)-N-ethylbenzenesulfonamide]
1 to 10 µM | ≥ 200% |  |  | COc1ccc(C2CC(c3ccc(NS(=O)(=O)c4c(F)cccc4F)cc3)=NN2C(=O)c2ccco2)cc1 (stereo not shown) [Compound 11A, 2,6-Difluoro-N-(4-(1-(furan-2-carbonyl)-5-(4-methoxyphenyl)-4,5-dihydro-1H-pyrazol-3-yl)phenyl)benzenesulfonamide]
1 to 10 µM | ≤ 130% |  |  | COc1ccc(C2CC(c3ccc(NS(=O)(=O)c4c(F)cccc4F)cc3)=NN2C(=O)c2ccccn2)cc1 (stereo not shown) [Compound 14A, 2,6-Difluoro-N-(4-(5-(4-methoxyphenyl)-1-picolinoyl-4,5-dihydro-1H-pyrazol-3-yl)phenyl)benzenesulfonamide]
1 to 10 µM | ≥ 200% |  |  | COc1ccc(C2CC(c3ccc(NS(=O)(=O)c4c(F)cccc4F)cc3)=NN2C(=O)c2cccnc2)cc1 (stereo not shown) [Compound 15A, 2,6-difluoro-N-(4-(5-(4-methoxyphenyl)-1-nicotinoyl-4,5-dihydro-1H-pyrazol-3-yl)phenyl)benzenesulfonamide]
1 to 10 µM | 130 to 200% |  |  | COc1ccc(C2CC(c3ccc(NS(=O)(=O)c4ccccc4)cc3)=NN2C(C)=O)cc1 (stereo not shown) [Compound 16A]
1 to 10 µM |  | C (C: ≦130%) |  | COc1ccc(C2CC(c3ccc(NS(=O)(=O)c4ccccc4)cc3)=NN2C(C)=O)cc1 (stereo not shown) [Compound 17A, N-(4-(1-Acetyl-5-(4-methoxyphenyl)-4,5-dihydro-1H-pyrazol-3-yl)phenyl)benzene sulfonamide]
≤ 1 µM | 130 to 200% |  |  | COc1ccc(C2CC(c3ccc(NS(=O)(=O)c4ccccc4C(F)(F)F)cc3)=NN2C(C)=O)cc1 (stereo not shown) [Compound 20A]
≤ 1 µM | 130 to 200% |  |  | CC(=O)N1N=C(c2ccc(NS(=O)(=O)c3ccc(F)cc3)cc2)CC1c1ccc2c(c1)CCO2 (stereo not shown) [Compound 22A, N-(4-(1-Acetyl-5-(2,3-dihydrobenzofuran-5-yl)-4,5-dihydro-1H-pyrazol-3-yl)phenyl)-4-fluorobenzenesulfonamide]
1 to 10 µM | ≤ 130% |  |  | CC(=O)N1N=C(c2ccc(NS(=O)(=O)c3ccc(F)cc3)cc2)CC1c1ccc(F)c(F)c1 (stereo not shown) [Compound 27A, N-(4-(1-Acetyl-5-(3,4-difluorophenyl)-4,5-dihydro-1H-pyrazol-3-yl)phenyl)-4-fluoro benzenesulfonamide]
1 to 10 µM | ≤ 130% |  |  | COc1ccc(C2CC(c3ccc(NS(=O)(=O)c4cccc(Cl)c4)cc3)=NN2C(C)=O)cc1 (stereo not shown) [Compound 28A, N-(4-(1-Acetyl-5-(4-methoxyphenyl)-4,5-dihydro-1H-pyrazol-3-yl)phenyl)-3-chloro benzenesulfonamide]
≤ 1 µM | 130 to 200% |  |  | COc1ccc(C2CC(c3ccc(NS(=O)(=O)c4ccc(OC)c(F)c4)cc3)=NN2C(C)=O)cc1 (stereo not shown) [Compound 44A]
≤ 1 µM | ≤ 130% |  |  | CC(=O)N1N=C(c2ccc(NS(C)(=O)=O)cc2)CC1c1ccc2c(c1)OCO2 (stereo not shown) [Compound 52A]
1 to 10 µM | ≥ 200% |  |  | CCS(=O)(=O)Nc1ccc(C2=NN(C(=O)c3ccco3)C(c3ccc(OC)cc3)C2)cc1 (stereo not shown) [Compound 53A]
 |  |  | 6% (30 μM) | COc1ccc(C2CC(c3ccc(NS(C)(=O)=O)cc3)=NN2C(C)=O)cc1OC (stereo not shown) [Compound 54A]
 |  |  | −5% (30 μM) | CCS(=O)(=O)Nc1ccc(C2=NN(S(C)(=O)=O)C(c3ccc(OC)cc3)C2)cc1 (stereo not shown) [Compound 55A]
≤ 1 µM | ≤ 130% |  |  | CCS(=O)(=O)Nc1ccc(C2=NN(C(C)=O)C(c3ccccc3F)C2)cc1 (stereo not shown) [Compound 57A]
 |  |  | 47% (30 μM) | CCS(=O)(=O)Nc1ccc(C2=NN(C(C)=O)C(c3ccc(Cl)o3)C2)cc1 (stereo not shown) [Compound 59A]
10 to 100 µM | 130 to 200% |  |  | CCS(=O)(=O)Nc1ccc(C2=NN(C(C)=O)C(c3cccs3)C2)cc1 (stereo not shown) [Compound 67A]

Compound | AC50 | Emax [1] | Max activity Group [1] | Max activity
CCS(=O)(=O)Nc1ccc(C2=NN(C(C)=O)C(c3ccc(OC)cc3)C2)cc1 (single isomer, unassigned) [Compound 2A, N-(4-(1-Acetyl-5-(4-methoxyphenyl)-4,5-dihydro-1H-pyrazol-3-yl)phenyl)ethane sulfonamide] | ≤ 1 µM |  |  | 
CCS(=O)(=O)Nc1ccc(C2=NN(C(C)=O)C(c3ccc(OC)cc3)C2)cc1 (single isomer, unassigned) [Compound 3A] | ≤ 1 µM | 130 to 200% |  | 
COc1cc(C2CC(c3ccc(NS(C)(=O)=O)cc3)=NN2C(C)=O)cc(OC)c1OC (stereo not shown) [Compound 56A] |  |  |  | −6% (30 μM)
